Assay results as given in patent US6429229B1, “Keto acid salts and amine derivatives, and their use for preparing medicines” (Chiesi S.A., priority 1998, dated 2002).

Experiments:
[1] = tested on: colic distension in rat; assay: Colic distension in rat (colon irritated with 1% acetic acid, balloon distension, abdominal cramps counted); format: in vivo; settings: for Dose at/from which active in colic distension / Activity in the model of colic distension (in words): oral route; for Mean number of abdominal cramps ± standard error: 10 min colic distension, * = different from placebo at p < 0.05 (Dunnett); for Activity in the model of colic distension (in words): 1 to 20 mg/kg
Source text: This physiopathological mechanism inspired the creation of the model of distension of the colon first irritated with 1% acetic acid, in rat. […] IIS is characterized by the presence of abdominal pain. Patients having this pathology have a lowered threshold of digestive sensitivity.
The analgesic activity was studied on the model of digestive pain in observed rat. This pain is brought about by distension of the colon with a balloon.
Male Sprague-Dawley rats of about 180 g, fasted from the day before, are used. Under light fluothane anesthesia, an intrarectal probe is introduced 5 cm into the anus and 1.5 ml of 1% acetic acid is injected. An hour and 30 minutes after irritation, a latex balloon (empty diameter 2 mm, length 1 cm) mounted on a polyethylene catheter is introduced into the colon to the site of the irritation.
The product to be tested or the vehicle (distilled water) is administered per os in a volume of 1 ml, then the rat is observed on a Petri dish.
Distension of the colon is carried out 2 hours and 20 minutes after irritation. It is effected at a fixed volume of 1.5 ml of distilled water. The colic distension gives rise to digestive pain manifested by abdominal cramps whose number reflects the intensity of the pain. The colic distension is maintained for 10 minutes in the course of which the abdominal cramps are counted.
Statistical analysis is carried out with the help of the Dunnett test which compares a same group of vehicle animals (40) to several groups of rats (six animals per group) having received the studied molecules. The threshold of significance is fixed at 5%.
The molecules are tested by the oral route at 1-10-20 mg/kg. They are dissolved in distilled water.
The vehicle used as placebo is comprised by distilled water.
Comparative tests 1 to 5 are products available commercially and are used as such, except ornithine chlorhydrate which is salted out by methods known in the literature and stored in solution in water.

[2] = tested on: writhing test in rat or a mouse; settings: i.p. phenylbenzoquinone or 3% acetic acid; cited from earlier work
[3] = tested on: colic distension in rat; settings: cited from earlier work; for Activity on the model of colic distension (in words): background statement
[4] = tested on: writhing test in mice; settings: 500 and 1000 mg/kg by intravenous route in mice; cited from earlier work
[5] = tested on: somatic pain test in rat; settings: doses between 300 and 1000 mg/kg by subcutaneous route in rat; cited from earlier work

Question: Which “Dose at/from which active in colic distension” value (shortened to “Dose at/from which active”) [1] does the source give for “Mono-ornithine Keto-glutarate [Example 1]” here?
Answer: 1 mg/kg

Question: Which “Dose at/from which active” value [1] does the source give for “Mono-ornithine Keto-butyrate [Example 6]” here?
Answer: ≥ 1 mg/kg

Question: Which “Activity in the writhing test (in words)” value [2] does the source give for `CC(=O)Oc1ccccc1C(=O)O` [aspirin] here?
Answer: active

Question: And the “Activity on the model of colic distension (in words)” value (“Activity on the model” for short) [3]?
Answer: inactive

Question: For `CC(=O)Nc1ccc(O)cc1` [paracetamol], which “Activity in the writhing test (in words)” value [2] is on record?
Answer: active

Question: What about the “Activity on the model” value [3] of the same molecule?
Answer: inactive

Question: Which “Activity on the model” value [3] does the source give for `CN1CC[C@]23c4c5ccc(O)c4O[C@H]2[C@@H](O)C=C[C@H]3[C@H]1C5` [Morphine] here?
Answer: active

Question: With Di-ornithine Keto-glutarate [Example 2] as the molecule, how does the “Dose at/from which active” value [1] read?
Answer: 1 mg/kg

Question: Which “Mean number of abdominal cramps ± standard error” value ([1]; 1 mg/kg p.o.) does the source give for `NC(=O)CC[C@H](N)C(=O)O` [Comparison 4, Glutamine] here?
Answer: 21 ± 2

Question: And the “Dose at/from which active” value [1]?
Answer: 10 mg/kg

Question: And the “Activity in the test of colic distension (in words)” value ([3]; 6 mg/kg by rectal route in rat (local administration on the irritated colic mucosa))?
Answer: active

Question: Which “Mean number of abdominal cramps ± standard error” value ([1]; 1 mg/kg p.o.) does the source give for `Cl.NCCC[C@H](N)C(=O)O` [Comparison 2, Ornithine, HCl] here?
Answer: 20 ± 3

Question: And the “Mean number of abdominal cramps ± standard error” value ([1]; 10 mg/kg p.o.)?
Answer: 19 ± 6

Question: What about the “Mean number of abdominal cramps ± standard error” value ([1]; 20 mg/kg p.o.) of the same molecule?
Answer: 18 ± 6

Question: What about the “Activity in the model of colic distension (in words)” value [1] of the same molecule?
Answer: inactive

Question: What about the “Activity in the writhing test (in words)” value [4] of the same molecule?
Answer: active

Question: What about the “Activity in a somatic pain test (in words)” value [5] of the same molecule?
Answer: active

Question: What does the source list for `N=C(N)NCCC[C@H](N)C(=O)O` [Comparison 5, Arginine]?
Answer: Mean number of abdominal cramps ± standard error ([1]; 1 mg/kg p.o.): 20 ± 6; Mean number of abdominal cramps ± standard error ([1]; 10 mg/kg p.o.): 20 ± 9; Dose at/from which active in colic distension [1]: ≥ 20 mg/kg

Question: For “Ornithine and Glutamine Keto-glutarate [Example 5]”, which “Dose at/from which active” value [1] is on record?
Answer: ≥ 1 mg/kg

Question: Which results are given for `CCC(=O)C(=O)O` [Comparison 3, α-keto-butyric acid]?
Answer: Mean number of abdominal cramps ± standard error ([1]; 1 mg/kg p.o.): 19 ± 2; Mean number of abdominal cramps ± standard error ([1]; 10 mg/kg p.o.): 20 ± 3; Mean number of abdominal cramps ± standard error ([1]; 20 mg/kg p.o.): 19 ± 3; Activity in the model of colic distension (in words) [1]: inactive

Question: Which “Mean number of abdominal cramps ± standard error” value ([1]; 1 mg/kg p.o.) does the source give for “Ornithine and Arginine Keto-glutarate [Example 4]” here?
Answer: 18 ± 2

Question: Which “Mean number of abdominal cramps ± standard error” value ([1]; 1 mg/kg p.o.) does the source give for Di-arginine Keto-glutarate [Example 3] here?
Answer: 17 ± 9

Question: What does the source list for `O=C(O)CCC(=O)C(=O)O` [Comparison 1, α-keto-glutaric acid]?
Answer: Mean number of abdominal cramps ± standard error ([1]; 1 mg/kg p.o.): 17 ± 1; Mean number of abdominal cramps ± standard error ([1]; 10 mg/kg p.o.): 17 ± 4; Mean number of abdominal cramps ± standard error ([1]; 20 mg/kg p.o.): 22 ± 6; Activity in the model of colic distension (in words) [1]: inactive
